From patent US11155558B2, “Dual mode of action soluble guanylate cyclase activators and phosphodiesterase inhibitors and uses thereof” (TOPADUR PHARMA AG, priority 2017, dated 2021)

How the values were obtained:
[1] = target: PDE5 enzyme isolated from human platelets (Homo sapiens (Human), UniProt O76074); assay: PDE5 assay (Example 109), formation of 5′GMP from cGMP, SPA; details: for % inhibition at 5.0E−09 M: percent inhibition of control enzyme activity at 5.0E−09 M, assay of Example 109;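 for all read-outs here: tritiated 5′GMP counted by scintillation after SPA bead capture, enzyme reaction run 60 min at 22 °C, basal control is the mixture without enzyme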
Protocol: Evaluation of the effects of compounds of the present invention on the activity of the human phosphodiesterase-5 quantified by measuring the formation of 5′GMP from cGMP using PDE5 enzyme isolated from human platelets.
Thereafter, the reaction is initiated by addition of the enzyme and the mixture is incubated for 60 min at 22° C.
For basal control measurements, the enzyme is omitted from the reaction mixture. Following incubation SPA beads are added. After 20 min at 22° C. under shaking, the amount of [3H]5′GMP is quantified with a scintillation counter (Topcount, Packard).
The standard inhibitory reference compound is dipyridamole, which is tested in each experiment at several concentrations to obtain an inhibition curve from which its IC50 value is calculated.

[2] = Measurements of human plasma protein binding; format: in vitro ADME; details: for recovery: human
Protocol: An aliquot of 200 μL of human plasma containing test compound was spiked into donor well (red chamber) of the insert. 350 μL of PBS was spiked into receiver well (white chamber) of the insert.
The samples were matrix equilibrated with opposite matrix (25 μL of plasma/buffer sample was matched with 25 μL of blank buffer/plasma). Matrix matched samples were precipitated with 200 μL of acetonitrile containing internal standard. Samples were vortexed at 1000 rpm for 5 min and centrifuged at 4000 rpm for 10 min. Supernatant was separated, diluted 2 fold with water and analysed in LC-MS/MS. TO control samples were processed immediately after the preparation of plasma working stock solutions. These samples serves as a measure for calculating the percentage recovery of test compounds.

Row | Structure (SMILES) | % Bound in Plasma [2] | fraction unbound [2] | recovery [2] | IC50 [1] | % inhibition at 5.0E−09 M [1]
1 | CCCc1cn(C)c2c(=O)[nH]c(-c3cc(S(=O)(=O)N4CCN(CCCO[N+](=O)[O-])CC4)ccc3OCC)nc12 [Compound 2b, 3-(4-((4-ethoxy-3-(5-methyl-4-oxo-7-propyl-4,5-dihydro-3H-pyrrolo[3,2-d]pyrimidin-2-yl)phenyl)sulfonyl)piperazin-1-yl)propyl nitrate] | – | – | – | 2 nM | 18.2%
2 | CCCOc1ccc(S(=O)(=O)N2CCN(CCO[N+](=O)[O-])CC2)cc1-c1nc2c(CCC)c(/C=N/O)n(CC)c2c(=O)[nH]1 [Compound 1a, (E)-2-(4-((3-(5-ethyl-6-((hydroxyimino)methyl)-4-oxo-7-propyl-4,5-dihydro-3H-pyrrolo[3,2-d]pyrimidin-2-yl)-4-propoxyphenyl)sulfonyl)piperazin-1-yl)ethyl nitrate] | – | – | – | 12 nM | 20.7%
3 | CCCOc1ccc(S(=O)(=O)N2CCN(CCO)CC2)cc1-c1nc2c(CCC)cn(CC)c2c(=O)[nH]1 [mirodenafil, 5-ethyl-2-(5-((4-(2-hydroxyethyl)piperazin-1-yl)sulfonyl)-2-propoxyphenyl)-7-propyl-3,5-dihydro-4H-pyrrolo[3,2-d]pyrimidin-4-one, reference compound] | 98.94% | 0.0106 | 99.2% | 0.34 nM | 64.9%
4 | CCCOc1ccc(S(=O)(=O)N2CCC(CCCO)CC2)cc1-c1nc2c(CCC)cn(CC)c2c(=O)[nH]1 [Compound 15, 5-ethyl-2-(5-((4-(3-hydroxypropyl)piperidin-1-yl)sulfonyl)-2-propoxyphenyl)-7-propyl-3,5-dihydro-4H-pyrrolo[3,2-d]pyrimidin-4-one] | – | – | – | 1.8 nM | 50.3%
5 | CCCOc1ccc(S(=O)(=O)N2CCN(CCO)CC2)cc1-c1nc2c(CCC)cn(C)c2c(=O)[nH]1 [Compound 32, 2-(5-((4-(2-hydroxyethyl)piperazin-1-yl)sulfonyl)-2-propoxyphenyl)-5-methyl-7-propyl-3,5-dihydro-4H-pyrrolo[3,2-d]pyrimidin-4-one] | – | – | – | – | 53.4%
6 | CCCc1cn(C)c2c(=O)[nH]c(-c3cc(S(=O)(=O)N4CCN(CCO)CC4)ccc3OCC)nc12 [Compound 20, 2-(2-ethoxy-5-((4-(2-hydroxyethyl)piperazin-1-yl)sulfonyl)phenyl)-5-methyl-7-propyl-3,5-dihydro-4H-pyrrolo[3,2-d]pyrimidin-4-one] | – | – | – | – | 41.1%
7 | CCCOc1ccc(S(=O)(=O)N2CCC(CCCO[N+](=O)[O-])CC2)cc1-c1nc2c(CCC)cn(CC)c2c(=O)[nH]1 [Compound 1d, 3-(1-((3-(5-ethyl-4-oxo-7-propyl-4,5-dihydro-3H-pyrrolo[3,2-d]pyrimidin-2-yl)-4-propoxyphenyl)sulfonyl)piperidin-4-yl)propyl nitrate] | – | – | – | > 10 nM | 13.4%
8 | CCCOc1ccc(S(=O)(=O)N2CCC(CCO[N+](=O)[O-])CC2)cc1-c1nc2c(CCC)cn(C)c2c(=O)[nH]1 [Compound 3a, 2-(1-((3-(5-methyl-4-oxo-7-propyl-4,5-dihydro-3H-pyrrolo[3,2-d]pyrimidin-2-yl)-4-propoxyphenyl)sulfonyl)piperidin-4-yl)ethyl nitrate] | – | – | – | – | 6.5%
9 | CCCc1cn(C)c2c(=O)[nH]c(-c3cc(S(=O)(=O)N4CCN(CCCO)CC4)ccc3OCC)nc12 [Compound 23, 2-(2-ethoxy-5-((4-(3-hydroxypropyl)piperazin-1-yl)sulfonyl)phenyl)-5-methyl-7-propyl-3,5-dihydro-4H-pyrrolo[3,2-d]pyrimidin-4-one] | – | – | – | – | 36.7%
10 | CCCc1c(/C=N/O)n(C)c2c(=O)[nH]c(-c3cc(S(=O)(=O)N4CCC(CCO)CC4)ccc3OCC)nc12 [Compound 17, (E)-2-(2-ethoxy-5-((4-(2-hydroxyethyl)piperidin-1-yl)sulfonyl)phenyl)-5-methyl-4-oxo-7-propyl-4,5-dihydro-3H-pyrrolo[3,2-d]pyrimidine-6-carbaldehyde oxime] | – | – | – | – | 33.2%
11 | CCCc1c(/C=N/O)n(C)c2c(=O)[nH]c(-c3cc(S(=O)(=O)N4CCC(CCO[N+](=O)[O-])CC4)ccc3OCC)nc12 [Compound 2a, (E)-2-(1-((4-ethoxy-3-(6-((hydroxyimino)methyl)-5-methyl-4-oxo-7-propyl-4,5-dihydro-3H-pyrrolo[3,2-d]pyrimidin-2-yl)phenyl)sulfonyl)piperidin-4-yl)ethyl nitrate] | – | – | – | 2 nM | 13.4%
12 | CCCOc1ccc(S(=O)(=O)N2CCC(CCO)CC2)cc1-c1nc2c(CCC)c(CO)n(CC)c2c(=O)[nH]1 [Compound 6, 5-ethyl-2-(5-((4-(2-hydroxyethyl)piperidin-1-yl)sulfonyl)-2-propoxyphenyl)-6-(hydroxymethyl)-7-propyl-3,5-dihydro-4H-pyrrolo[3,2-d]pyrimidin-4-one] | – | – | – | 2.4 nM | –
13 | CCCc1cn(C)c2c(=O)[nH]c(-c3cc(S(=O)(=O)N4CCN(CCO[N+](=O)[O-])CC4)ccc3OCC)nc12 [Compound 2d, 2-(4-((4-ethoxy-3-(5-methyl-4-oxo-7-propyl-4,5-dihydro-3H-pyrrolo[3,2-d]pyrimidin-2-yl)phenyl)sulfonyl)piperazin-1-yl)ethyl nitrate] | – | – | – | 1.2 nM | 57.8%
14 | CCCOc1ccc(S(=O)(=O)N2CCC(CCO)CC2)cc1-c1nc2c(CCC)cn(C)c2c(=O)[nH]1 [Compound 29, 2-(5-((4-(2-hydroxyethyl)piperidin-1-yl)sulfonyl)-2-propoxyphenyl)-5-methyl-7-propyl-3,5-dihydro-4H-pyrrolo[3,2-d]pyrimidin-4-one] | – | – | – | – | 46.4%
15 | CCCOc1ccc(S(=O)(=O)N2CCC(CCO)CC2)cc1-c1nc2c(CCC)c(/C=N/O)n(CC)c2c(=O)[nH]1 [Compound 8, (E)-5-ethyl-2-(5-((4-(2-hydroxyethyl)piperidin-1-yl)sulfonyl)-2-propoxyphenyl)-4-oxo-7-propyl-4,5-dihydro-3H-pyrrolo[3,2-d]pyrimidine-6-carbaldehyde oxime] | – | – | – | 2.7 nM | 71.2%

Continued, in another order:

Row | % Bound in Plasma [2] | fraction unbound [2] | recovery [2] | Structure (SMILES) | IC50 [1] | % inhibition at 5.0E−09 M [1]
16 | 97.28% | 0.0272 | 101% | CC(=O)CC(c1ccccc1)c1c(O)c2ccccc2oc1=O (centres unmarked) [Warfarin, reference compound] | – | –
17 | 96.41% | 0.0359 | 104% | CCCc1nn(C)c2c(=O)[nH]c(-c3cc(S(=O)(=O)N4CCN(C)CC4)ccc3OCC)nc12 [sildenafil, reference compound] | – | –
18 | 99.65% | 0.0035 | 105% | CCCc1cn(C)c2c(=O)[nH]c(-c3cc(S(=O)(=O)N4CCC(CCO[N+](=O)[O-])CC4)ccc3OCC)nc12 [Compound 2c, 2-(1-((4-ethoxy-3-(5-methyl-4-oxo-7-propyl-4,5-dihydro-3H-pyrrolo[3,2-d]pyrimidin-2-yl)phenyl)sulfonyl)piperidin-4-yl)ethyl nitrate] | – | –
